Experimental data published in the Kinase Knowledgebase extract (Sharma et al. 2016).

Molecular target: EGFR (human) (UniProt P00533)
Sequence (P00533 whole entry, looked up): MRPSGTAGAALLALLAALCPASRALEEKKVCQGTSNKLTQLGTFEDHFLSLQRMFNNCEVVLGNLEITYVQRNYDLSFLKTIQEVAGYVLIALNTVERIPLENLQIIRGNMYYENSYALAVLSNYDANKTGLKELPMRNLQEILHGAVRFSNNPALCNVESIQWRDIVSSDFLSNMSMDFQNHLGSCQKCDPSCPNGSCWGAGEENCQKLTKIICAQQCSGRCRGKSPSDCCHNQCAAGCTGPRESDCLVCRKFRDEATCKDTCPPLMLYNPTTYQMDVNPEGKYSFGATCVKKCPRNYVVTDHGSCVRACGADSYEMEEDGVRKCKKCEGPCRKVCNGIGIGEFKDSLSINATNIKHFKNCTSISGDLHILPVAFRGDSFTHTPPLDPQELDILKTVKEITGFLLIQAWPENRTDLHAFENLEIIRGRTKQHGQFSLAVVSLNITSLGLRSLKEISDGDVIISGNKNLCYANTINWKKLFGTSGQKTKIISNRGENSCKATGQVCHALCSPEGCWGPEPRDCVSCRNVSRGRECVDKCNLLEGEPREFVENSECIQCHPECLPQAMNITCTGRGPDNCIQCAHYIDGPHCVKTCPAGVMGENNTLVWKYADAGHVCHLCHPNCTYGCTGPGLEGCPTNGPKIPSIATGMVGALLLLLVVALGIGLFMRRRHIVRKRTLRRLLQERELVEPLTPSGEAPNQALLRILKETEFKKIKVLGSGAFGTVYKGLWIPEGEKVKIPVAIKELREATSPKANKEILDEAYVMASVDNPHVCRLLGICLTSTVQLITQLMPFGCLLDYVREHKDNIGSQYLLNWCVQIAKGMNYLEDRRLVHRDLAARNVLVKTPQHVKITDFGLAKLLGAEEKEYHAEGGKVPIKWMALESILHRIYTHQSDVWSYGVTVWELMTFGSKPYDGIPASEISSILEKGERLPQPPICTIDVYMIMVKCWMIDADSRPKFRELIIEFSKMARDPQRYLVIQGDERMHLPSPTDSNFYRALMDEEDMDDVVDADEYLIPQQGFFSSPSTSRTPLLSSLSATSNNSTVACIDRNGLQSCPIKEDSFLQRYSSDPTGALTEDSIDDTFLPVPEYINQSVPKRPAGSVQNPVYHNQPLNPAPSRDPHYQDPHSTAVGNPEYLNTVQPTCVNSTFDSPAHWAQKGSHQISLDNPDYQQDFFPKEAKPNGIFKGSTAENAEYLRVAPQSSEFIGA

SMILES | IC50
CC#CC(=NOC[C@H]1COCCN1)c1ccc2ncnc(Nc3ccc(OCc4cccc(F)c4)c(Cl)c3)c2c1 | 118 nM
CC#CC(=NOC[C@@H]1COCCN1)c1ccc2ncnc(Nc3ccc(OCc4cccc(F)c4)c(Cl)c3)c2c1 | 101 nM
CC#CC(=NOC[C@@H]1C[C@H](O)CN1)c1ccc2ncnc(Nc3ccc4c(cnn4Cc4cccc(F)c4)c3)c2c1 | 9.7 nM
CC#CC(=NOCC(=O)NCCO)c1ccc2ncnc(Nc3ccc(COc4cccc(F)c4)c(Cl)c3)c2c1 | 122 nM
CC#CC(=NOC[C@@H]1COCCN1)c1ccc2ncnc(Nc3ccc(OCc4ccccn4)c(Cl)c3)c2c1 | 6.2 nM

The remaining compounds from weak to strong by IC50, led by results:

IC50 | SMILES
426 nM | CN(N=Cc1ccc2ncnc(Nc3ccc(COc4cccc(F)c4)c(Cl)c3)c2c1)c1ccccc1
344 nM | COC[C@@H]1CCCN1N=Cc1ccc2ncnc(Nc3ccc(COc4cccc(F)c4)c(Cl)c3)c2c1
275 nM | C#CCN1CCC[C@H]1CON=C(C#CC)c1ccc2ncnc(Nc3ccc(OCc4cccc(F)c4)c(Cl)c3)c2c1
193 nM | Fc1cccc(OCc2ccc(Nc3ncnc4ccc(C=NN5CCCCC5)cc34)cc2Cl)c1
47 nM | CC#CC(=NOCC(=O)NCCOS(C)(=O)=O)c1ccc2ncnc(Nc3ccc(COc4cccc(F)c4)c(Cl)c3)c2c1
20 nM | CC#CC(=NOCC(=O)NCCN(C)C)c1ccc2ncnc(Nc3ccc(COc4cccc(F)c4)c(Cl)c3)c2c1
